This is an account of results in patent publication US10869864B2, “Combinations for the treatment of cancer” (IGNYTA, INC., priority 2015, dated 2020).

Data set [1] concerns KM-12 TPM3-NTRK1 G595R cells. As to the kind of experiment: Tumor growth in athymic nu/nu mice implanted subcutaneously with KM-12 TPM3-NTRK1 G595R cells. Format: in vivo. The following applies: for Average tumor volume / Percent tumor growth inhibition (% TGI): entrectinib 60 mg/kg, trametinib 1 mg/kg, p.o. q.d. As for the experimental part: Athymic nu/nu mice, 6-7 weeks old, female mice were implanted subcutaneously (right flank) with 2 million KM-12 TPM3-NTRK1 G595R cells/mouse. Animals were randomized once the mean tumor volume reached ˜150 mm^3.
Trametinib in vivo oral dosing solution was made by dissolving trametinib in a solution of DMSO (Lot #: SHBG1596V, D8418-100ML, Sigma), PEG 400 (Lot #: MKBX3961V, 202398-500G, Sigma), Tween 80 (Lot #: MKB58228V, P4780-100ML, Sigma) and water. The final concentration of trametinib was 0.1 mg/mL and the amounts of each component in the resulting solution were 3.3% DMSO, 16.7% PEG 400, 15% Tween 80 and 65% water, with the water being added just prior to dosing.
Athymic nu/nu female mice between 6-7 weeks of age were ordered from Charles River. Animals were allowed to acclimate 3 days prior to the start of the study (e.g., cell implantation). Animals were housed in irradiated, individual HEPA ventilated cages (Innocage® IVC, Innovive USA) on a 12-hour light-dark cycle at 68-79° F. and 30-70% humidity. Animals were provided with irradiated chow (Teklad 2920X) and acidified drinking water (Innovive) ad libitum as per the animal care and use protocol established at Explora Biolabs (Ignyta ACUP # EB15-050). Animals were identified by uniquely numbered ear-tags.
(§1) KM12 cells were cultured, harvested, and suspended in 1:1 FBS free culture media:martigel at a concentration of 10 million cells/mL. Cells were implanted under the skin on the right flank of each mouse on day 0. The implantation volume was 200 μL/mouse. Tumors grew until the mean tumor volume reached approximately 130 mm^3. On day 8 mice were randomized into 6 treatment groups (10 mice/group) and treatment began. […] The final treatment for all groups was administered on day 17, for a total of 10 doses. The final tumor and body weight measurements were taken on the final day of dosing, day 17.
(§2) Tumors measurements and body weights were collected 2×/week over the duration of the study. Tumor growth was assessed by caliper and tumor volumes were calculated using the equation (1). Animals with tumor volumes >2,000 mm^3 were removed from study. Volume (mm^3)=[length (mm)×width (mm)×width (mm)]/2 (1)
The percentage of tumor growth inhibition (% TGI) was calculated for each treatment group at each tumor measurement. The % TGI values were calculated using equation (2) below, where TVvehicle is the tumor volume for the vehicle-treated animals at a specified time point, TVinitial is the initial tumor volume at the start of the treatment and TVtreatment is the tumor volume of the treatment group at a specified end-point time. Differences in tumor volumes were assessed by ANOVA using GraphPad Prism (version 6.07, GraphPad Software, Inc.). % TGI=[(TVvehicle−TVtreatment)/(TVvehicle−TVinitial)]×100

Data set [2] is described as follows: Tolerability, body weight and toxicity in the KM-12 TPM3-NTRK1 G595R mouse study. The conditions noted are these: any animals receiving trametinib 1 mg/kg p.o. q.d. As for the experimental part: as §1, §2
The mark [3] stands for this setting: day 8 after cell implantation (randomization, treatment began).
The mark [4] stands for this setting: day 8 after cell implantation (treatment began).
Where [5] appears, read: day 17 after cell implantation (10 doses).
Where [6] appears, read: day 17 after cell implantation (final day, 10 doses).

Take `CN1CCN(c2ccc(C(=O)Nc3n[nH]c4ccc(Cc5cc(F)cc(F)c5)cc34)c(NC3CCOCC3)c2)CC1` [Entrectinib, N-[5-(3,5-difluorobenzyl)-1H-indazol-3-yl]-4-(4-methyl-piperazin-1-yl)-2-(tetrahydro-pyran-4-ylamino)-benzamide]: the Average tumor volume turned out to be 148.2 mm^3 in data set [1] (setting [3]), 403.2 mm^3 in data set [1] (day 11 after cell implantation), 934.5 mm^3 in data set [1] (day 14 after cell implantation) and 2057.8 mm^3 in data set [1] (setting [6]). Besides, the “Percent tumor growth inhibition (% TGI)” value in data set [1] (setting [4]) is 100.0%; in data set [1] (day 11 after cell implantation) it was −15.1%; in data set [1] (day 14 after cell implantation), −4.5%; in data set [1] (setting [5]), −11.6%.
On to `CC(=O)Nc1cccc(-n2c(=O)n(C3CC3)c(=O)c3c(Nc4ccc(I)cc4F)n(C)c(=O)c(C)c32)c1` [Trametinib], for which the “Toxicity (evaluated based on body weight loss)” value in data set [2] was “Toxicity was observed”. The “tumor volume difference from vehicle, two-way ANOVA” value in data set [1] (by day 14, p<0.05) was “significantly different from vehicle”. In addition, the Average tumor volume worked out at 146.7 mm^3 in data set [1] (setting [3]), 254.8 mm^3 in data set [1] (day 11 after cell implantation), 373.1 mm^3 in data set [1] (day 14 after cell implantation) and 544.9 mm^3 in data set [1] (setting [6]). Further, the “Percent tumor growth inhibition (% TGI)” value is 100.0% in data set [1] (setting [4]), 51.5% in data set [1] (day 11 after cell implantation), 70.0% in data set [1] (day 14 after cell implantation) and 76.7% in data set [1] (setting [5]). For the same molecule, in data set [1] (days 14 and 17), the “tumor volume difference from vehicle, one-way ANOVA” value was “Differences were found”.
